The conditions of data set [1]: human gut metagenome, 24 h, 2 µM.
Data set [2] can be described thus: The drug is tested on Z-014 corresponding to rat gut metagenome with ENA study accession number: PRJEB37062 and ENA sample accession number: ERS12561814 for biotransformation under anaerobic condition. The drug concentrations were measured over 9 timepoints collected between 0 and 24 hours of incubation by liquid-chromatography-coupled mass spectrometry (LC–MS). The settings on record: 2 µM.

The nature of data set [3]: The drug is tested on Z-022 corresponding to mouse gut metagenome with ENA study accession number: PRJEB37062 and ENA sample accession number: ERS12561821 for biotransformation under anaerobic condition. The drug concentrations were measured over 9 timepoints collected between 0 and 24 hours of incubation by liquid-chromatography-coupled mass spectrometry (LC–MS). The note with it: 2 µM.

For data set [4] the following is noted: human gut metagenome, 24 h, 2 µM. This is another data set of the same source.
The conditions of data set [5]: human gut metagenome, 24 h, 2 µM. The source holds these as a separate data set.
For data set [6] the following is noted: human gut metagenome, 24 h, 2 µM. The source holds these as a separate data set.
For data set [7] the following is noted: human gut metagenome, 24 h, 2 µM. The source holds these as a separate data set.
For data set [8] the following is noted: human gut metagenome, 24 h, 2 µM. This is another data set of the same source.
Data set [9] is described as follows: The drug is tested on WLS-027 corresponding to human gut metagenome with ENA study accession number: PRJEB37062 and ENA sample accession number: ERS12561744 for biotransformation under anaerobic condition. The drug concentrations were measured over 9 timepoints collected between 0 and 24 hours of incubation by liquid-chromatography-coupled mass spectrometry (LC–MS). The note with it: 2 µM.

The nature of data set [10]: The drug is tested on Z-010 corresponding to metagenome with ENA study accession number: PRJEB37062 and ENA sample accession number: ERS12561810 for biotransformation under anaerobic condition. The drug concentrations were measured over 9 timepoints collected between 0 and 24 hours of incubation by liquid-chromatography-coupled mass spectrometry (LC–MS). The note with it: 2 µM.

Data set [11] can be described thus: The drug is tested on Z-029 corresponding to rat gut metagenome with ENA study accession number: PRJEB37062 and ENA sample accession number: ERS12561828 for biotransformation under anaerobic condition. The drug concentrations were measured over 9 timepoints collected between 0 and 24 hours of incubation by liquid-chromatography-coupled mass spectrometry (LC–MS). The note with it: 2 µM.

The nature of data set [12]: The drug is tested on WLS-010 corresponding to human gut metagenome with ENA study accession number: PRJEB37062 and ENA sample accession number: ERS12561743 for biotransformation under anaerobic condition. The drug concentrations were measured over 9 timepoints collected between 0 and 24 hours of incubation by liquid-chromatography-coupled mass spectrometry (LC–MS). The settings on record: 2 µM.

The nature of data set [13]: The drug is tested on WLS-350 corresponding to human gut metagenome with ENA study accession number: PRJEB37062 and ENA sample accession number: ERS12561789 for biotransformation under anaerobic condition. The drug concentrations were measured over 9 timepoints collected between 0 and 24 hours of incubation by liquid-chromatography-coupled mass spectrometry (LC–MS). The settings on record: 2 µM.

The conditions of data set [14]: human gut metagenome, 24 h, 2 µM. The source holds these as a separate data set.
The nature of data set [15]: The drug is tested on WLS-090 corresponding to human gut metagenome with ENA study accession number: PRJEB37062 and ENA sample accession number: ERS12561753 for biotransformation under anaerobic condition. The drug concentrations were measured over 9 timepoints collected between 0 and 24 hours of incubation by liquid-chromatography-coupled mass spectrometry (LC–MS). The note with it: 2 µM.

For data set [16] the following is noted: human gut metagenome, 24 h, 2 µM. The source holds these as a separate data set.
Data set [17] is described as follows: The drug is tested on WLS-039 corresponding to human gut metagenome with ENA study accession number: PRJEB37062 and ENA sample accession number: ERS12561746 for biotransformation under anaerobic condition. The drug concentrations were measured over 9 timepoints collected between 0 and 24 hours of incubation by liquid-chromatography-coupled mass spectrometry (LC–MS). The note with it: 2 µM.

The nature of data set [18]: The drug is tested on Z-018 corresponding to pig gut metagenome with ENA study accession number: PRJEB37062 and ENA sample accession number: ERS12561817 for biotransformation under anaerobic condition. The drug concentrations were measured over 9 timepoints collected between 0 and 24 hours of incubation by liquid-chromatography-coupled mass spectrometry (LC–MS). The note with it: 2 µM.

The nature of data set [19]: The drug is tested on WLS-038 corresponding to human gut metagenome with ENA study accession number: PRJEB37062 and ENA sample accession number: ERS12561745 for biotransformation under anaerobic condition. The drug concentrations were measured over 9 timepoints collected between 0 and 24 hours of incubation by liquid-chromatography-coupled mass spectrometry (LC–MS). The note with it: 2 µM.

For data set [20] the following is noted: human gut metagenome, 24 h, 2 µM. The source holds these as a separate data set.
Also: call rule not given here.

As to `Cc1cc2c(cc1S(N)(=O)=O)S(=O)(=O)CCC2`, the “Bacterial Biotransformation” value in data set [1], in [2], in [3], in [4], in data set [5] and in [6] was “Compound NOT metabolized” each time. The “Bacterial Biotransformation” value in [7], in data set [8], in data set [9], in data set [10], in [11] and in data set [12] was “Compound NOT metabolized” in each case. Further, the “Bacterial Biotransformation” value in data set [13], in [14], in data set [15], in data set [16], in data set [17] and in data set [18] was “Compound NOT metabolized” each time. For the same compound, the “Bacterial Biotransformation” value in [19] and in [20] was “Compound NOT metabolized” in each case.

In the case of `CN1CCc2c(c3ccccc3n2Cc2ccccc2)C1.CN1CCc2c(c3ccccc3n2Cc2ccccc2)C1.O=S(=O)(O)c1cccc2c(S(=O)(=O)O)cccc12`, the “Bacterial Biotransformation” value in data set [1], in data set [2], in data set [3], in data set [4], in [5] and in data set [6] was “Compound NOT metabolized” throughout. For the same compound, the “Bacterial Biotransformation” value in [7] is recorded as “Compound NOT metabolized”; in data set [8], “Compound NOT metabolized”; in [9], “Compound metabolized”; in data set [10] it was “Compound NOT metabolized”; in data set [11] it was “Compound NOT metabolized”; in data set [12], “Compound NOT metabolized”. The “Bacterial Biotransformation” value was “Compound NOT metabolized” in data set [13]; “Compound metabolized” in [14]; “Compound metabolized” in [15]; “Compound metabolized” in data set [16]; “Compound metabolized” in data set [17]; “Compound NOT metabolized” in data set [18]. Also, the “Bacterial Biotransformation” value in [19] and in data set [20] was “Compound NOT metabolized” each time.

Turning to `CN1CC(=O)N2[C@H](c3ccc4c(c3)OCO4)c3[nH]c4ccccc4c3C[C@@H]2C1=O`, the “Bacterial Biotransformation” value in [1] was “Compound metabolized”; in data set [2], “Compound NOT metabolized”; in [3], “Compound metabolized”; in data set [4], “Compound metabolized”; in data set [5], “Compound NOT metabolized”; in data set [6] it was “Compound metabolized”. Further, the “Bacterial Biotransformation” value in [7] is listed as “Compound NOT metabolized”; in data set [8], “Compound NOT metabolized”; in data set [9] it was “Compound metabolized”; in data set [10] it was “Compound metabolized”; in data set [11] it was “Compound NOT metabolized”; in [12], “Compound metabolized”. The “Bacterial Biotransformation” value in [13] is “Compound metabolized”; in [14] it was “Compound NOT metabolized”; in data set [15] it was “Compound metabolized”; in data set [16], “Compound metabolized”; in [17] it was “Compound NOT metabolized”; in [18], “Compound metabolized”. Moreover, the “Bacterial Biotransformation” value in data set [19] and in data set [20] was “Compound metabolized” each time.

As to `COc1cc2nc(N(C)CCCNC(=O)C3CCCO3)nc(N)c2cc1OC` (stereo not given) [ALFUZOSIN], the “Bacterial Biotransformation” value in data set [1] is on record as “Compound metabolized”; in data set [2], “Compound NOT metabolized”; in data set [3], “Compound metabolized”; in [4], “Compound NOT metabolized”; in data set [5], “Compound NOT metabolized”; in [6], “Compound metabolized”. In addition, the “Bacterial Biotransformation” value in data set [7] is given as “Compound NOT metabolized”; in data set [8] it was “Compound NOT metabolized”; in data set [9], “Compound NOT metabolized”; in data set [10] it was “Compound metabolized”; in [11], “Compound NOT metabolized”; in [12], “Compound metabolized”. The “Bacterial Biotransformation” value is recorded as “Compound metabolized” in data set [13]; “Compound metabolized” in data set [14]; “Compound metabolized” in [15]; “Compound NOT metabolized” in data set [16]; “Compound NOT metabolized” in data set [17]; “Compound metabolized” in data set [18]. Further, the “Bacterial Biotransformation” value in data set [19] is given as “Compound NOT metabolized”; in [20], “Compound metabolized”.

For `NC12CC3CC(CC(C3)C1)C2` [AMANTADINE], the “Bacterial Biotransformation” value in [1] is “Compound NOT metabolized”; in data set [2], “Compound NOT metabolized”; in data set [3] it was “Compound metabolized”; in data set [4], “Compound NOT metabolized”; in [5] it was “Compound NOT metabolized”; in [6], “Compound NOT metabolized”. Moreover, the “Bacterial Biotransformation” value in data set [7], in data set [8], in data set [9], in data set [10], in [11] and in [12] was “Compound NOT metabolized” each time. The “Bacterial Biotransformation” value in data set [13], in data set [14], in [15], in data set [16], in data set [17] and in [18] was “Compound NOT metabolized” in each case. Further, the “Bacterial Biotransformation” value in [19] and in data set [20] was “Compound NOT metabolized” in each case.

As to `CC(C)(C#N)c1cc(Cn2cncn2)cc(C(C)(C)C#N)c1` [ANASTROZOLE], the “Bacterial Biotransformation” value in data set [1] is reported as “Compound metabolized”; in [2], “Compound NOT metabolized”; in data set [3], “Compound metabolized”; in data set [4] it was “Compound NOT metabolized”; in data set [5], “Compound NOT metabolized”; in [6], “Compound metabolized”. Also, the “Bacterial Biotransformation” value in [7], in data set [8], in data set [9], in data set [10], in data set [11] and in data set [12] was “Compound NOT metabolized” in each case. The “Bacterial Biotransformation” value in data set [13] is given as “Compound metabolized”; in [14], “Compound metabolized”; in data set [15], “Compound metabolized”; in data set [16], “Compound metabolized”; in [17], “Compound NOT metabolized”; in data set [18], “Compound NOT metabolized”. In addition, the “Bacterial Biotransformation” value in data set [19] and in [20] was “Compound NOT metabolized” in each case.

Values taken from ChEMBL document CHEMBL5724914, “Linking interpersonal differences in gut microbiota composition and drug biotransformation activity” (2024).
